The structures appear in SMILES notation.

We go through four compounds from patent US8623407B2, “Gabapentin-containing solid compositions and process for preparing the same” (Pfizer Inc., priority 1998, dated 2014).

What all share (type): physicochemical
Data set [1] can be described thus: Storage stability of baclofen samples: dehydrated condensates content by HPLC. Conditions: based on baclofen. How it is done: The baclofen powder samples G and H obtained as described above and untreated baclofen crystals were stored under the conditions as defined in the following Table 8 and then a content of dehydrated condensates formed in each of the samples was determined by means of HPLC. In this Example, the content of the dehydrated condensates is expressed in terms of % by weight, based on baclofen.

Data set [2] can be described thus: Storage stability of pregabalin samples: dehydrated condensate content by HPLC. The following applies: Table 9, based on pregabalin. On the procedure: The samples I, J and K obtained as described above and untreated pregabalin crystals were stored under the conditions as defined in the following Table 9 and then a content of the dehydrated condensate formed in each of the samples was determined by means of HPLC. In the present Example and the following Example 6, a content of the dehydrated condensate is expressed in terms of % by weight, based on pregabalin.
The samples L and M obtained as described above were stored under the conditions as defined in the following Table 10 and then a content of the dehydrated condensate formed in each of the samples was determined by means of HPLC.

The nature of data set [3]: Dehydration reaction (lactam formation) when maintained in a dried state at 105° C. The following applies: 105° C. over 2-3 hours. On the procedure: To the contrary, in γ-aminobutyric acid derivatives having no or a less bulky substituent at the 3-position thereof, such as γ-aminobutyric acid or 4-amino-3-hydroxy-butanoic acid, the dehydration reaction is not brought about even when maintained in a dried state such as at a temperature of 105° C. over 2-3 hours, and the formation of 4-cyclohexylpyrrolidone (the corresponding lactam form) is not observed. In other words, in the 4-amino-3-substituted-butanoic acid derivative wherein the substituent at the 3-position thereof has a bulky structure, the dehydration reaction could easily be brought about between the amino group and the carboxyl group within the molecule.

As to `NCC(CC(=O)O)c1ccc(Cl)cc1` (stereo not drawn) [Untreated Baclofen], the “content of dehydrated condensates” value stood at 0.36 % by weight in data set [1] (60° C./1 week (sealed)), 0.57 % by weight in data set [1] (60° C./2 weeks (sealed)), 0.70 % by weight in data set [1] (60° C./3 weeks (sealed)) and 0.10 % by weight in data set [1] (When Initiated).

Turning to `CC(C)CC(CN)CC(=O)O` (stereo not drawn) [Untreated Pregabalin, 5-methyl-3-aminomethyl-hexanoic acid], the “content of the dehydrated condensate” value in data set [2] (60° C./1 week (sealed)) is recorded as 0.001 % by weight; in data set [2] (60° C./2 weeks (sealed)) it was 0.001 % by weight; in data set [2] (When initiated), <0.001 % by weight.

In the case of `NCC(O)CC(=O)O` (stereo not drawn) [4-amino-3-hydroxy-butanoic acid], the “formation of 4-cyclohexylpyrrolidone (the corresponding lactam form)” value in data set [3] is listed as “not observed”.

On to `NCCCC(=O)O` [γ-aminobutyric acid], for which, in data set [3], the “formation of 4-cyclohexylpyrrolidone (the corresponding lactam form)” value is given as “not observed”.
